The nature of the series: Solubility in second solution of Japanese Pharmacopoeia (0.2 M phosphate buffer, pH approx. 6.8). Format: physicochemical. How it is done: The term “solubility” used herein means concentration of drug in a supernatant which is obtained by centrifugal separation of unsolved agent, after shaking a mixture prepared by adding the agent to the second solution defined in Japanese Pharmacopoeia [0.2 M phosphate-buffer (pH approx. 6.8), for more than 30 minutes at room temperature (about 15 to about 25° C.) in a rate of more than 100 times per minutes using, for example, a Recipro shaker (model SR-I, Taiyo Scientific Industrial Co., Ltd.).

`CONC(=O)Nc1ccc(-c2sc3c(c2CN(C)Cc2ccccc2)c(=O)n(-c2ccccc2)c(=O)n3Cc2c(F)cccc2F)cc1` [Reference example 7, 5-(N-Benzyl-N-methylaminomethyl)-1-(2,6-difluorobenzyl)-6-[4-(3-methoxyureido)phenyl]-3-phenylthieno[2,3-d]pyrimidine-2,4 (1H,3H)-dione]: the “water solubility (in words)” value is “water-insoluble or slightly water-soluble”.
